Test system: mycoplasma-like organisms
Test: tritiated uracil incorporation into mycoplasma-density fractions of CEM culture supernatant (sucrose density gradient)
Format: cell-based
Conditions: control peak about 1200 counts
Text: As shown in FIGS. 1A-1C, superoxide dismutase (SOD) from a vegetal source has a significant decreasing effect on mycoplasma growth. SOD was included in the medium at the first of the five day experiment. The SOD was purified from melon plant material.

Question: What does the source list for superoxide dismutase [SOD]?
Answer: peak of tritiated uracil incorporation (mycoplasma growth) (50 μg/ml SOD in medium from first of five days): around 500 counts; peak of tritiated uracil incorporation (mycoplasma growth) (100 μg/ml SOD in medium from first of five days): around 250 counts

— patent US20050164173A1, “Combined treatments and methods for treatment of mycoplasma and mycoplasma-like organism infections” (priority 2001, published 2005)
